# Tested on: PDC 899932-113-R3-J6 complex spheroid viability
# Test: Anticancer human tumor 899932-113-R3-J6-PDC patient-derived melanoma cell line growth inhibition [RAS]
# Details: for IC50: curve of first compound; for viability, T/C: stronger effect = lower value
# Outline: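 Tumour cells grown as complex spheroids with HUVEC endothelial cells and mesenchymal stem cells, treated with RAS pathway inhibitor combinations. Each agent spans half-log steps from near clinical Cmax, or 10 microM where Cmax is unknown.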
# 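Throughout, for viability, T/C: spheroids exposed to agents for seven days before readout; 100% = DMSO vehicle control wells.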
smiles,measurement,setting,value
C=CC(=O)N1CCN(c2nc(OCC3CCCN3C)nc3c(F)c(-c4nc(N)cc(C)c4C(F)(F)F)c(Cl)cc23)C(C)C1 (centres undefined) + C#Cc1c(F)ccc2cc(O)cc(-c3ncc4c(N5CC6CCC(C5)N6)nc(OCC56CCCN5CC(F)C6)nc4c3F)c12,IC50,second compound 0.0316 µM,> 1000 nM
same,IC50,second compound 0.1 µM,> 1000 nM
same,IC50,second compound 0.316 µM,> 1000 nM
same,IC50,second compound 1 µM,> 1000 nM
same,IC50,second compound 3.16 µM,> 1000 nM
same,IC50,second compound 10 µM,> 1000 nM
same,"viability, T/C","second compound 0.0316 µM, first compound 0.00316 µM",116%
same,"viability, T/C","second compound 0.0316 µM, first compound 0.01 µM",107%
same,"viability, T/C","second compound 0.0316 µM, first compound 0.0316 µM",101%
same,"viability, T/C","second compound 0.0316 µM, first compound 0.1 µM",108%
same,"viability, T/C","second compound 0.0316 µM, first compound 0.316 µM",110%
same,"viability, T/C","second compound 0.0316 µM, first compound 1 µM",104%
same,"viability, T/C","second compound 0.1 µM, first compound 0.00316 µM",112%
same,"viability, T/C","second compound 0.1 µM, first compound 0.01 µM",106%
same,"viability, T/C","second compound 0.1 µM, first compound 0.0316 µM",105%
same,"viability, T/C","second compound 0.1 µM, first compound 0.1 µM",117%
same,"viability, T/C","second compound 0.1 µM, first compound 0.316 µM",111%
same,"viability, T/C","second compound 0.1 µM, first compound 1 µM",106%
same,"viability, T/C","second compound 0.316 µM, first compound 0.00316 µM",112%
same,"viability, T/C","second compound 0.316 µM, first compound 0.01 µM",115%
same,"viability, T/C","second compound 0.316 µM, first compound 0.0316 µM",107%
same,"viability, T/C","second compound 0.316 µM, first compound 0.1 µM",108%
same,"viability, T/C","second compound 0.316 µM, first compound 0.316 µM",117%
same,"viability, T/C","second compound 0.316 µM, first compound 1 µM",112%
same,"viability, T/C","second compound 1 µM, first compound 0.00316 µM",120%
same,"viability, T/C","second compound 1 µM, first compound 0.01 µM",108%
same,"viability, T/C","second compound 1 µM, first compound 0.0316 µM",115%
same,"viability, T/C","second compound 1 µM, first compound 0.1 µM",112%
same,"viability, T/C","second compound 1 µM, first compound 0.316 µM",125%
same,"viability, T/C","second compound 1 µM, first compound 1 µM",102%
same,"viability, T/C","second compound 3.16 µM, first compound 0.00316 µM",129%
same,"viability, T/C","second compound 3.16 µM, first compound 0.01 µM",113%
same,"viability, T/C","second compound 3.16 µM, first compound 0.0316 µM",120%
same,"viability, T/C","second compound 3.16 µM, first compound 0.1 µM",133%
same,"viability, T/C","second compound 3.16 µM, first compound 0.316 µM",124%
same,"viability, T/C","second compound 3.16 µM, first compound 1 µM",110%
same,"viability, T/C","second compound 10 µM, first compound 0.00316 µM",118%
same,"viability, T/C","second compound 10 µM, first compound 0.01 µM",115%
same,"viability, T/C","second compound 10 µM, first compound 0.0316 µM",122%
same,"viability, T/C","second compound 10 µM, first compound 0.1 µM",125%
same,"viability, T/C","second compound 10 µM, first compound 0.316 µM",110%
same,"viability, T/C","second compound 10 µM, first compound 1 µM",102%
CC1(C)CCC(Nc2ncc(C(F)(F)F)c(-c3c[nH]c4c(P(C)(C)=O)c(C#N)ccc34)n2)CN1 (centres undefined) + C#Cc1c(F)ccc2cc(O)cc(-c3ncc4c(N5CC6CCC(C5)N6)nc(OCC56CCCN5CC(F)C6)nc4c3F)c12,IC50,second compound 0.0316 µM,16.4 nM
same,IC50,second compound 0.1 µM,15.3 nM
same,IC50,second compound 0.316 µM,16.5 nM
same,IC50,second compound 1 µM,15.8 nM
same,IC50,second compound 3.16 µM,19.2 nM
same,IC50,second compound 10 µM,20.7 nM
same,"viability, T/C","second compound 0.0316 µM, first compound 0.000949 µM",100%
same,"viability, T/C","second compound 0.0316 µM, first compound 0.003 µM",82.4%
same,"viability, T/C","second compound 0.0316 µM, first compound 0.00949 µM",57.3%
same,"viability, T/C","second compound 0.0316 µM, first compound 0.03 µM",45.7%
same,"viability, T/C","second compound 0.0316 µM, first compound 0.0949 µM",13.2%
same,"viability, T/C","second compound 0.0316 µM, first compound 0.3 µM",9.56%
same,"viability, T/C","second compound 0.1 µM, first compound 0.000949 µM",97.2%
same,"viability, T/C","second compound 0.1 µM, first compound 0.003 µM",79.1%
same,"viability, T/C","second compound 0.1 µM, first compound 0.00949 µM",56.9%
same,"viability, T/C","second compound 0.1 µM, first compound 0.03 µM",42.8%
same,"viability, T/C","second compound 0.1 µM, first compound 0.0949 µM",14.3%
same,"viability, T/C","second compound 0.1 µM, first compound 0.3 µM",7.89%
same,"viability, T/C","second compound 0.316 µM, first compound 0.000949 µM",102%
same,"viability, T/C","second compound 0.316 µM, first compound 0.003 µM",84.9%
same,"viability, T/C","second compound 0.316 µM, first compound 0.00949 µM",53.5%
same,"viability, T/C","second compound 0.316 µM, first compound 0.03 µM",47.5%
same,"viability, T/C","second compound 0.316 µM, first compound 0.0949 µM",15.9%
same,"viability, T/C","second compound 0.316 µM, first compound 0.3 µM",11.3%
same,"viability, T/C","second compound 1 µM, first compound 0.000949 µM",104%
same,"viability, T/C","second compound 1 µM, first compound 0.003 µM",79.4%
same,"viability, T/C","second compound 1 µM, first compound 0.00949 µM",58%
same,"viability, T/C","second compound 1 µM, first compound 0.03 µM",45.5%
same,"viability, T/C","second compound 1 µM, first compound 0.0949 µM",13.5%
same,"viability, T/C","second compound 1 µM, first compound 0.3 µM",9.51%
same,"viability, T/C","second compound 3.16 µM, first compound 0.000949 µM",112%
same,"viability, T/C","second compound 3.16 µM, first compound 0.003 µM",84.9%
same,"viability, T/C","second compound 3.16 µM, first compound 0.00949 µM",64.6%
same,"viability, T/C","second compound 3.16 µM, first compound 0.03 µM",47.1%
same,"viability, T/C","second compound 3.16 µM, first compound 0.0949 µM",13.6%
same,"viability, T/C","second compound 3.16 µM, first compound 0.3 µM",8.79%
same,"viability, T/C","second compound 10 µM, first compound 0.000949 µM",108%
same,"viability, T/C","second compound 10 µM, first compound 0.003 µM",87.6%
same,"viability, T/C","second compound 10 µM, first compound 0.00949 µM",55.1%
same,"viability, T/C","second compound 10 µM, first compound 0.03 µM",58.9%
same,"viability, T/C","second compound 10 µM, first compound 0.0949 µM",11.1%
same,"viability, T/C","second compound 10 µM, first compound 0.3 µM",6.89%

# Source: PubChem BioAssay AID2060895 (Molecular Pharmacology Branch, DTP, NCI, 2025)
